Experimental data published in patent US4721715A, “Derivatives of 4-(arylpiperazinyl-ethylaminoethoxy) phenol useful for effecting hypolipidemic therapy or cardiovascular therapy” (Societe Cortial, S.A., priority 1984, dated 1988).
Where a name gives a salt, the structure may show the parent alone.

Key:
[1] = system: phenylephrine-induced hypertension; assay: Alpha-blocking activity in vivo: antagonism of phenylephrine-induced hypertension in rats with spinal cord removal and bivagotomy; details: intravenous; for ED50 / inhibition in vivo at 3 µmol/kg: Rattus norvegicus; for inhibition in vivo at 3 µmol/kg: read-out: maximum activity (antagonism of phenylephrine-induced hypertension)
Protocol: (§1) Alpha-blocking activity was determined in vivo in mice with the test involving inhibition of mydriasis induced by norepinephrine. […] Thirty minutes later, 0.75 mg/kg norepinephrine was administered intravenously. […] In vivo alpha-blocking activity was also evaluated by determination of antagonism of phenylephrine-induced hypertension. The test products were administered by the intravenous route to rats that had undergone spinal cord removal and bivagotomy according to the technique by J. S. Gillespie and T. S. Muir (Br. J. Pharmac. Chemother. 30:78-87, 1967). The dosage, maximum activity, and the interval after which residual activity was equal to 50% of the maximum activity are presented below: […]

[2] = system: spontaneously hypertensive rats; assay: Antihypertensive activity, spontaneously hypertensive rats, oral, two days, sphygmomanometer; type: in vivo; details: 100 mg/kg/day for two days, one hour after gavage
Protocol: Antihypertensive Activity: The test products were administered orally to spontaneously hypertensive rats. Arterial pressure was measured indirectly with a sphygmomanometer.

[3] = system: isolated guinea pig ileum (serotonin); assay: Antiserotonin activity in vitro: serotonin-induced contractions of isolated guinea pig ileum; details: serotonin 10^-6 g/ml
Text: Antiserotonin Activity: In vitro, contractions induced in isolated guinea pig ileum by 10^-6 g/ml serotonin were inhibited by COR 2838 in a concentration of 4.10^-7 g/ml and COR 2831 and COR 2833 in a concentration of 2.10^-6 g/ml.

[4] = system: mice; assay: Toxicity, oral administration to mice; type: in vivo; details: oral dose of 300 mg/kg
[5] = Toxicity, oral administration to mice; type: in vivo; details: mouse, in vivo, oral route, confidence interval in parentheses
[6] = Toxicity, intravenous administration to mice; type: in vivo; details: mouse, in vivo, intravenous route
[7] = system: IgE; assay: Combined anaphylactic reaction (IgE) and cutaneous histamine reaction in the same rat: IgE reaction; type: in vivo, Sprague-Dawley rat
Protocol: (§2) Antihistamine-antiallergy activity was also determined by combining an anaphylactic reaction (IgE) and a cutaneous histamine reaction in the same animal (Sprague-Dawley rat). Activity was evaluated by the quantity of Evans blue liberated at each reaction site as compared with control animals receiving the administration vehicle. COR 2831 produced the following ED50 values in this test: […]

[8] = system: passive cutaneous anaphylaxis; assay: Passive cutaneous anaphylaxis test in rats; type: in vivo
Protocol: Antiallergy-Antihistamine Activity: In the passive cutaneous anaphylaxis test, COR 2833 and COR 2838 given to rats in an intravenous dose of 10 mg/kg produced 53 and 60% activity, respectively. Under the same conditions, COR 2831 produced 67% activity in an oral dose of 5 mg/kg.

[9] = system: isolated guinea pig ileum (histamine); assay: Antihistamine activity in vitro: histamine-induced contractions of isolated guinea pig ileum; details: histamine 5.10^-7 g/ml
[10] = system: histamine; assay: Combined anaphylactic reaction (IgE) and cutaneous histamine reaction in the same rat: histamine reaction; type: in vivo, Sprague-Dawley rat
Protocol: as §2

[11] = system: mice; assay: Toxicity, intraperitoneal administration to mice
[12] = system: Alpha-1; assay: Type of antagonism vis-a-vis norepinephrine on isolated rabbit aorta strips (cumulative curve method, Van Rossum, in presence of cocaine); details: 30 minutes interval
Protocol: Alpha-1 Blocking Activity: Alpha-1 blocking activity is evaluated in vitro by determination of the antagonism of contractions induced in isolated rabbit aorta strips by norepinephrine used in a concentration of 2.10^-6 mol/1 according to a technique derived from that described by Furchgott and Bhadrakom (J. Pharmacol. 108:129-43, 1953). The IC50 (concentration inhibiting 50% of the contractions) as well as the interval between introduction of the test product and of the […] into the bath, which corresponds to the maximum activity, are presented below for the derivatives according to the present invention: COR 2831, 90 min, 1.10·10^-7 (9.26·10^-8 -1.31·10^-7)mol/1; COR 2837, 30 min, 1.64·10^-6 (1.44·10^-6 -1.85·10^-6) mol/1; COR 2841, 60 min, 1.16·10^-6(9.24·10^-7 -1.46·10^-6) mol/1; COR 2843, 60 min, 9.82·10^ -7 (7.67·10^-7 -1.26·10^-6) mol/1; COR 2838, 60 min, 2.53·10^-6(2.15·10^-6 -2.98·10^-6 mol/1. The type of antagonism that COR 2831 exerts vis-a-vis norepinephrine was determined on the same type of preparation for an interval of 30 minutes, using the cumulative curve method according to Van Rossum in the presence of cocaine.

[13] = system: Alpha-1; assay: Alpha-1 blocking activity in vitro: antagonism of norepinephrine-induced contractions of isolated rabbit aorta strips; details: norepinephrine 2.10^-6 mol/1
[14] = system: left guinea pig auricle; assay: Anticalcium activity: electrically stimulated left guinea pig auricle, calcium-induced contraction force; details: 25.10^-6 g/ml; 0.6 mM calcium added; 150 beats/min, low calcium Tyrode's solution
[15] = Solubility and hygroscopicity of the isolated product; type: physicochemical; details: dihydrochloride
Protocol: A solution of 6 g 4-isopropyl-2-methyl-4-methylaminoethoxy phenol and 6 g 1-chloroethyl-4-phenylpiperazine in 10 ml triethylamine and 150 ml ethyl alcohol is heated for 20 hours in a reflux system. The excess ethyl alcohol and triethylamine are evaporated. The residue is taken up in an aqueous solution of hydrochloric acid. The solution obtained is extracted with chloroform. The aqueous phase is alkalized with ammonia and then extracted again with chloroform. After drying and evaporation of the chloroform, 9.3 g of crude product is obtained. This is purified by silica chromatography using as the eluent pure chloroform followed by a mixture of 98% chloroform and 2% methanol. This procedure yield 4.6 g of free base; yield, 42%. The latter is transformed into a hydrochloride by a saturated ethyl ether solution in gaseous hydrochloric acid. This produces a white solid which is filtered and washed with a little ethyl ether.

[16] = system: strips of mesenteric veins; assay: Anticalcium activity: calcium-induced increment of spontaneous contractions in mesenteric vein strips; details: 5.10^-6 g/ml, rats with normal blood pressure
Text: At 5.10^-6 g/ml, COR 2838 inhibited the calcium-induced increment of spontaneous contractions in strips of mesenteric veins from rats with normal blood pressure.

[17] = system: glucose tolerance curve; assay: Hypoglycemic activity: glucose tolerance curve after an excess of starch; type: in vivo; details: one hour after oral 100 mg/kg, excess of starch (2.5 g per kg)
Protocol: (§3) Hypoglycemic Activity: One hour after oral administration of a dose of 100 mg/kg, COR 2839 produced a 21% reduction in the glucose tolerance curve after an excess of starch (2.5 g per kg). One hour after oral administration of a dose of 100 mg per kg, COR 2839 brought about a decrease of 24% in the blook sugar of fasting mice subjected to an excess of glucose (1 g per kg) at the time that the test product was tiven.

[18] = system: fasting mice; assay: Hypoglycemic activity: blood sugar of fasting mice subjected to an excess of glucose; type: in vivo; details: one hour after oral 100 mg per kg, excess of glucose (1 g per kg)
Protocol: as §3

[19] = system: platelet aggregation; assay: Platelet anti-aggregation activity: sodium arachidonate-induced aggregation in rabbit plasma with a high platelet content; type: cell-based; details: Oryctolagus cuniculus, 50 mcg/ml sodium arachidonate; for inhibition at 5 µg/mL: 5 mcg/ml
Text: In the presence of aspirin, this inhibition was 100% in a concentration of 2.5 mcg/ml COR 2860 and a concentration of 5 mcg/ml COR 2864. In the absence of aspirin, the inhibition was 100% with a concentration of 5 mcg/ml COR 2860 and 10 mcg/ml COR 2864.

[20] = system: norepinephrine-induced mydriasis; assay: Alpha-blocking activity in vivo: inhibition of norepinephrine-induced mydriasis in mice; details: 25 mg/kg, 0.75 mg/kg norepinephrine IV
Protocol: as §1

[21] = mice, intraperitoneal dose of 200 mg per kg

## COc1ccccc1N1CCN(CCOc2cc(C)c(O)cc2C(C)C)CC1 [COR 2831, 5-Isopropyl-2-methyl-4-(2-methoxyphenylpiperazinyl)ethoxy)phenol hydrochloride]
[1]; 2 min, after 2 min
  ED50: 0.0195 µmol/kg
[1]; 0.5 h, after 30 min
  ED50: 0.304 µmol/kg
[1]; 1 h, after 60 min
  ED50: 0.84 µmol/kg
[1]; 3.10^-6 M/kg
  inhibition in vivo at 3 µmol/kg: 129%
  interval after which residual activity was equal to 50% of the maximum activity: > 2 h
[2]; first day
  maximum pressure reduction: 26%
[2]; second day
  maximum pressure reduction: 21%
[3]; 2.10^-6 g/ml
  inhibition of serotonin-induced contractions: inhibited
[4]
  deaths: no deaths
[5]
  LD50: 1130 mg/kg
[6]
  LD50: 86 mg/kg
[7]; IV route
  ED50: 0.27 mg/kg
[7]; Oral route
  ED50: 14.4 mg/kg
[8]; oral, 5 mg/kg
  activity in the passive cutaneous anaphylaxis test: 67%
[9]; 10^-5 g/ml
  inhibition of histamine-induced contractions: 80%
[10]; IV route
  ED50: 0.37 mg/kg
[10]; Oral route
  ED50: 8 mg/kg
[11]; [21]
  deaths: no deaths
[12]; Arunlakshama and Schild method
  pA2: 8.59±0.08
[12]; vis-a-vis norepinephrine
  type of antagonism: competitive nature
[13]
  interval between introduction of the test product and of the […] into the bath, which corresponds to the maximum activity: 90 min

## COc1ccccc1N1CCN(CCN(C)CCOc2cc(C)c(O)cc2C(C)C)CC1 [COR 2833, 5-Isopropyl-2-methyl-4-((N-methyl N-2-((2-methoxyphenyl)piperazinylethyl)amino)ethoxyphenoldihydrochloride]
[3]; 2.10^-6 g/ml
  inhibition of serotonin-induced contractions: inhibited
[8]; intravenous, 10 mg/kg
  activity in the passive cutaneous anaphylaxis test: 53%
[9]; concentration of 2.10^-6
  inhibition of histamine-induced contractions: 80%

## Cc1cc(OCCN2CCN(c3ccccc3)CC2)c(C(C)C)cc1O [COR 2837, 5-Isopropyl-2-methyl-4-phenylpiperazinylethoxyphenol hydrochloride]
[1]; 3.10^-6 M/kg
  inhibition in vivo at 3 µmol/kg: 91.1%
[4]
  deaths: no deaths
[11]; [21]
  deaths: no deaths

## Cc1cc(OCCN(C)CCN2CCN(c3ccccc3)CC2)c(C(C)C)cc1O [COR 2838, 5-Isopropyl-2-methyl-4-((N-methyl N-2-(phenylpiperazinyl-ethyl)amino)ethoxy) phenol dihydrochloride]
[1]; 3.10^-6 M/kg
  inhibition in vivo at 3 µmol/kg: 60%
[14]
  inhibition of the increment in the contraction force induced by calcium: 50%
[3]; 4.10^-7 g/ml
  inhibition of serotonin-induced contractions: inhibited
[8]; intravenous, 10 mg/kg
  activity in the passive cutaneous anaphylaxis test: 60%
[15]
  hygroscopicity: hygroscopic
  solubility in water: soluble in water
[9]; 10^-5 g/ml
  inhibition of histamine-induced contractions: 80%
[11]; mouse, in vivo, ip, 50 mg/kg
  deaths: no deaths
[16]
  inhibition of calcium-induced increment of spontaneous contractions: inhibited
[13]
  interval between introduction of the test product and of the […] into the bath, which corresponds to the maximum activity: 60 min

## Cc1cc(OCCN2CCN(c3cccc(C(F)(F)F)c3)CC2)c(C(C)C)cc1O [COR 2839, 5-Isopropyl-2-methyl-4-(3-trifluoromethylphenyl) piperazinyl-ethoxy)phenol hydrochloride]
[17]
  reduction in the glucose tolerance curve: 21%
[11]; [21]
  deaths: no deaths
[18]
  decrease in the blood sugar: 24%

## Cc1cc(OCCN2CCN(c3ccc(F)cc3)CC2)c(C(C)C)cc1O [COR 2841, 5-Isopropyl-2-methyl-4-(p-fluorophenylpiperazinylethoxy)phenol hydrochloride]
[1]; 3.10^-6 M/kg
  inhibition in vivo at 3 µmol/kg: 39.8%
[4]
  deaths: no deaths

## Cc1cc(OCCN2CCN(c3cccc(Cl)c3)CC2)c(C(C)C)cc1O [COR 2842, 5-Isopropyl-2-methyl-4-((3-chlorophenyl)piperazinylethoxy)phenol hydrochloride]
[1]; 3.10^-6 M/kg
  inhibition in vivo at 3 µmol/kg: 35.1%
[4]
  deaths: no deaths
[11]; [21]
  deaths: no deaths

## Cc1cc(OCCN2CCN(c3ccccc3C)CC2)c(C(C)C)cc1O [COR 2843, 5-Isopropyl-2-methyl-4-(2-methylphenyl) piperazinylethoxy phenol hydrochloride]
[1]; 3.10^-6 M/kg
  inhibition in vivo at 3 µmol/kg: 112%
[4]
  deaths: no deaths
[11]; [21]
  deaths: no deaths

## COc1ccc(N2CCN(CCOc3cc(C)c(O)cc3C(C)C)CC2)cc1 [COR 2860, 5-Isopropyl-2-methyl-4-((4-methoxyphenylpiperazinyl)ethoxy)phenol dihydrochloride]
[1]; 3.10^-6 M/kg
  inhibition in vivo at 3 µmol/kg: 39.7%
[19]; 2.5 mcg/ml, in the presence of aspirin (1 mcg/ml)
  inhibition at 2.5 µg/mL: 100%
[19]; in the absence of aspirin
  inhibition at 5 µg/mL: 100%
[4]
  deaths: no deaths
[11]; [21]
  deaths: no deaths

## Cc1cc(OCCN2CCN(c3cccc(C)c3C)CC2)c(C(C)C)cc1O [COR 2861, 5-Isopropyl-2-methyl-4-((2,3-dimethylphenylpiperazinyl)ethoxyphenol hydrochloride]
[1]; 3.10^-6 M/kg
  inhibition in vivo at 3 µmol/kg: 66.4%
[4]
  deaths: no deaths
[11]; [21]
  deaths: no deaths

## Cc1cc(OCCN2CCN(c3ccccc3Cl)CC2)c(C(C)C)cc1O [COR 2864, 5-Isopropyl-2-methyl-4-((2-chlorophenyl)piperazinylethoxy)phenol hydrochloride]
[1]; 3.10^-6 M/kg
  inhibition in vivo at 3 µmol/kg: 98.6%
[19]; in the presence of aspirin (1 mcg/ml)
  inhibition at 5 µg/mL: 100%
[19]; 10 mcg/ml, in the absence of aspirin
  inhibition at 10 µg/mL: 100%
[4]
  deaths: no deaths
[11]; [21]
  deaths: no deaths

## CC(CCc1ccccc1)NCC(O)c1ccc(O)c(C(N)=O)c1 (centres unmarked) [labetalol, reference compound]
[20]
  inhibition of mydriasis: 58%
